From the supplement of paper PMC10331698
± gives the standard deviation of the averaged measurements.

How the values were obtained:
Experiment in all cases: level (log10 ratio to DMSO vehicle control); higher = higher biomarker level / cell amount than vehicle control
Details in all cases: in DMSO
[1] = compound: O=S(=O)(O)C(F)(F)C(F)(F)C(F)(F)C(F)(F)F [Perfluorobutanesulfonic acid]
Procedure: (§1)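 BioMAP Diversity Plus panel of 12 human primary cell co-culture systems (3C, 4H, LPS, SAg, BT, BF4T, BE3C, CASM3C, HDF3CGF, KF3CT, MyoF, Mphg). Compounds were added 1 h before stimulation and left for 24 h (MyoF 48 h; BT 72 h for soluble read-outs or 6 d for IgG). Biomarkers were read by ELISA, cytotoxicity by SRB, PBMC viability and proliferation by Alamar Blue. Each well value was divided by the mean of 8 DMSO control wells on the same plate and log10 transformed; duplicate blinded samples were tested at 4 concentrations.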

[2] = compound: O=C(O)C(F)(F)C(F)(F)C(F)(F)C(F)(F)C(F)(F)C(F)(F)C(F)(F)C(F)(F)C(F)(F)C(F)(F)C(F)(F)C(F)(F)F [Perfluorotridecanoic acid]
Procedure: as §1

[3] = compound: OCC(F)(F)C(F)(F)C(F)(F)C(F)(F)C(F)(F)C(F)F [1H,1H,7H-Dodecafluoro-1-heptanol]
Procedure: as §1

[4] = compound: O=C(O)C(F)(F)C(F)(F)C(F)(F)C(F)(F)C(F)(F)C(F)(F)C(F)(F)C(F)(F)C(F)(F)C(F)(F)C(F)(F)C(F)(F)C(F)(F)F [Perfluorotetradecanoic acid]
Procedure: as §1

Azathioprine = compound: Cn1cnc([N+](=O)[O-])c1Sc1ncnc2[nH]cnc12 [Azathioprine]
Procedure: as §1

[5] = compound: O=S(=O)(O)C(F)(F)C(F)(F)C(F)(F)C(F)(F)C(F)(F)C(F)(F)C(F)(F)C(F)(F)F [Potassium perfluorooctanesulfonate]
Procedure: as §1

Row | Test System | level (log10) ([1]; 6700 nM) | level (log10) ([1]; 20000 nM) | level (log10) ([1]; 60000 nM) | level (log10) ([2]; 1500 nM) | level (log10) ([2]; 4400 nM) | level (log10) ([2]; 13000 nM) | level (log10) ([2]; 40000 nM) | level (log10) ([3]; 6700 nM) | level (log10) ([3]; 20000 nM) | level (log10) ([3]; 60000 nM) | level (log10) ([4]; 6700 nM) | level (log10) ([4]; 20000 nM) | level (log10) (Azathioprine; 1400 nM) | level (log10) (Azathioprine; 4200 nM) | level (log10) (Azathioprine; 13000 nM) | level (log10) (Azathioprine; 38000 nM) | level (log10) ([5]; 6700 nM) | level (log10) ([5]; 20000 nM) | level (log10) ([5]; 60000 nM)
1 | LPS:sTNF-alpha | 0.002 ± 0.028 | -0.0175 ± 0.023 | -0.0075 ± 0.026 | -0.0185 ± 0.0092 | -0.016 ± 0.018 | -0.0375 ± 0.025 | -0.0485 ± 0.021 | -0.06 ± 0.028 | -0.04 ± 0.042 | -0.023 ± 0.073 | -0.009 ± 0.037 | 0.003 ± 0.018 | -0.0135 ± 0.022 | -0.015 ± 0.0099 | -0.035 ± 0.017 | -0.233 ± 0.0078 | -0.03 ± 0.073 | -0.047 ± 0.1 | -0.0915 ± 0.15
2 | SAg:CCL2/MCP-1 | -0.0225 ± 0.0092 | -0.0075 ± 0.0064 | 0.0185 ± 0.033 | -0.013 ± 0.016 | -0.0275 ± 0.0035 | -0.0265 ± 0.0064 | 0.005 ± 0.014 | 0.0005 ± 0.005 | -0.0035 ± 0.00071 | 0.0225 ± 0.029 | -0.021 ± 0.0057 | -0.0185 ± 0.0064 | -0.004 ± 0.017 | -0.0275 ± 0.0064 | -0.054 ± 0.011 | -0.112 ± 0.056 | -0.015 ± 0.0071 | -0.0025 ± 0.0021 | 0.004 ± 0.013
3 | SAg:CD38 | -0.005 ± 0.0028 | -0.0085 ± 0.0064 | -0.0155 ± 0.00071 | -0.017 ± 0.014 | -0.037 ± 0.02 | -0.0245 ± 0.018 | -0.027 ± 0.0028 | 0.0005 ± 0.013 | 0.0105 ± 0.019 | 0.0075 ± 0.022 | -0.0205 ± 0.03 | -0.018 ± 0.016 | 0.0035 ± 0.0035 | -0.0035 ± 0.00071 | -0.0265 ± 0.013 | -0.0765 ± 0.03 | -0.0085 ± 0.0092 | -0.01 ± 0.013 | -0.023 ± 0.02
4 | SAg:CD40 | -0.0075 ± 0.0064 | -0.024 ± 0.011 | -0.0445 ± 0.036 | -0.021 ± 0.017 | -0.071 ± 0.0057 | -0.0705 ± 0.06 | -0.497 ± 0.044 | 0.015 ± 0.0099 | 0 ± 0.018 | -0.0015 ± 0.005 | -0.0395 ± 0.069 | -0.081 ± 0.085 | -0.0125 ± 0.042 | -0.0095 ± 0.019 | -0.055 ± 0.025 | -0.118 ± 0.033 | -0.005 ± 0.0057 | -0.0205 ± 0.039 | -0.032 ± 0.042
5 | SAg:CD62E/E-Selectin | -0.0045 ± 0.005 | -0.008 ± 0.0085 | -0.001 ± 0.024 | 0.0065 ± 0.018 | -0.0015 ± 0.0064 | 0.012 ± 0.0057 | 0.006 ± 0.0014 | -0.0075 ± 0.0021 | -0.0205 ± 0.013 | -0.02 ± 0.0057 | 0 ± 0.0028 | 0.019 ± 0.0028 | -0.007 ± 0.013 | -0.0485 ± 0.023 | -0.07 ± 0.027 | -0.284 ± 0.018 | -0.004 ± 0.0057 | 0.0315 ± 0.013 | 0.033
6 | SAg:CD69 | -0.008 ± 0.0028 | -0.013 ± 0.017 | -0.043 ± 0.037 | -0.0075 ± 0.037 | -0.053 ± 0.03 | -0.0305 ± 0.025 | -0.0685 ± 0.0078 | -0.004 ± 0.013 | -0.0015 ± 0.021 | -0.002 ± 0.016 | -0.0155 ± 0.016 | -0.018 ± 0.028 | 0.0215 ± 0.044 | -0.0295 ± 0.016 | -0.039 ± 0.018 | -0.12 ± 0.013 | -0.0075 ± 0.013 | -0.002 ± 0.014 | -0.002 ± 0.021
7 | SAg:CXCL8/IL-8 | -0.0025 ± 0.023 | -0.001 ± 0.014 | 0.049 ± 0.037 | 0.018 ± 0.072 | -0.0025 ± 0.021 | -0.001 ± 0.0057 | 0.0035 ± 0.09 | 0.025 ± 0.0028 | 0.008 ± 0.0071 | 0.037 ± 0.038 | -0.028 ± 0.051 | 0.0035 ± 0.069 | 0.022 ± 0.1 | -0.038 ± 0.061 | -0.13 ± 0.021 | -0.304 ± 0.013 | -0.0055 ± 0.018 | 0.0145 ± 0.036 | 0.025 ± 0.027
8 | SAg:CXCL9/MIG | -0.0105 ± 0.00071 | 0.002 ± 0.014 | -0.002 ± 0.02 | -0.002 ± 0.0028 | -0.013 | -0.016 ± 0.0028 | 0.0035 ± 0.018 | 0.006 ± 0.0071 | -0.006 ± 0.0071 | 0.01 ± 0.0099 | -0.004 ± 0.014 | 0.001 ± 0.0085 | 0.006 ± 0.024 | 0.002 ± 0.0057 | 0.0025 ± 0.0078 | 0.008 ± 0.0085 | -0.0135 ± 0.00071 | 0.005 ± 0.0057 | -0.0035 ± 0.019
9 | SAg:PBMC Cytotoxicity | -0.029 ± 0.038 | -0.0315 ± 0.036 | 0.023 ± 0.024 | -0.0045 ± 0.021 | 0.0025 ± 0.0021 | -0.061 ± 0.042 | -0.0085 ± 0.028 | 0.001 ± 0.0099 | 0.028 ± 0.067 | -0.039 ± 0.0028 | -0.051 ± 0.014 | -0.016 ± 0.024 | -0.007 ± 0.033 | -0.0015 ± 0.044 | -0.0385 ± 0.03 | -0.0635 ± 0.023 | 0.0165 ± 0.0092 | 0.012 ± 0.013 | 0.0315 ± 0.029
10 | SAg:Proliferation | -0.0295 ± 0.11 | -0.0385 ± 0.023 | 0.039 ± 0.017 | -0.019 ± 0.047 | -0.0125 ± 0.005 | -0.066 ± 0.023 | -0.036 ± 0.031 | -0.003 ± 0.014 | 0.03 ± 0.037 | 0.007 ± 0.018 | -0.038 ± 0.045 | -0.014 ± 0.025 | -0.017 ± 0.047 | -0.052 ± 0.035 | -0.172 ± 0.005 | -0.29 ± 0.021 | 0.0005 ± 0.0021 | 0.0495 ± 0.0035 | 0.066 ± 0.051
11 | SAg:SRB | 0.0005 ± 0.0092 | -0.0085 ± 0.0092 | -0.0055 ± 0.013 | -0.0015 ± 0.011 | -0.0095 ± 0.0035 | -0.0045 ± 0.012 | -0.0335 ± 0.026 | -0.014 ± 0.017 | -0.0105 ± 0.028 | -0.013 ± 0.011 | -0.0025 ± 0.013 | -0.008 ± 0.024 | 0.002 ± 0.0057 | 0.0045 ± 0.013 | -0.009 ± 0.0042 | -0.0205 ± 0.026 | -0.0055 ± 0.028 | -0.0255 ± 0.035 | -0.0335 ± 0.0035
